Consider 23 compounds from paper PMC12557380, “Optimization of 2,8-Diaryl-1,5-naphthyridines as Plasmodium falciparum Phosphatidylinositol 4‑Kinase Inhibitors with Improved ADME Profiles and In Vivo Efficacy” (Journal of Medicinal Chemistry, 2025).

In series [1] the test system is P. falciparum NF54 (PfNF54) parasites. Briefly: In vitro antiplasmodial asexual blood stage activity, pLDH assay, NF54. The format is cell-based, Plasmodium falciparum.
Series [2] concerns Chinese hamster ovary cells. Briefly: Cytotoxicity, MTT assay, CHO. The format is cell-based. Conditions: Cricetulus griseus, read-out: CHO IC50. For orientation: Formazan colour is commonly taken as a measure of viable cells.
Series [3] deals with P. falciparum K1 (PfK1) strain. Briefly: In vitro antiplasmodial asexual blood stage activity, pLDH assay, K1. The format is cell-based. Conditions: Plasmodium falciparum.
A short description of series [4]: physchem. Conditions: 25 °C, pH 6.5, aqueous buffer, thermodynamic from solid.
The mark [5] stands for this setting: Plasmodium falciparum, NF54, 72 h, read-out: Pf ABS IC50 NF54.
[6] abbreviates: Plasmodium falciparum, NF54, read-out: PfNF54 IC50.
Setting [7] is: K1, 72 h, read-out: Pf ABS IC50 K1.
[8] abbreviates: Plasmodium falciparum, NF54, 72 h, pLDH assay, 72 h, read-out: Pf ABS IC50 NF54.
Where [9] appears, read: Plasmodium falciparum, NF54, mean, supplement, read-out: PfNF54 IC50.
Where [10] appears, read: K1, mean, supplement, read-out: PfK1 IC50.
Where [11] appears, read: K1, pLDH assay, 72 h, read-out: Pf ABS IC50 K1.

pIC50: −log10 of the molar value. Converted amounts (≈) assume the structure as drawn. Read-outs that look alike come from different tables or passages of the source.

As for `CCN(CC)CCCC(C)Nc1ccnc2cc(Cl)ccc12` (stereo not drawn) [Chloroquine, reference compound], the pIC50 (in general, the IC50 on a negative log10 scale, so that one unit is a factor of ten) in series [1] (Plasmodium falciparum, NF54, 72 h, read-out: PfNF54 IC50) is 7.96.
In the case of `C[S+]([O-])c1cccc(-c2ccc3nccc(-c4ccnc(C(F)(F)F)c4)c3n2)c1` (stereo not drawn) [Compound 11, 2-(3-Methylsulfinylphenyl)-8-[2-(trifluoromethyl)pyridin-4-yl]-1,5-naphthyridine], the pIC50 in series [1] (setting [5]) is 7.38; in series [1] (setting [6]), 7.37; in series [2], 4.85.
Regarding `Cn1ccc(-c2ccc3nccc(-c4ccnc(C(F)(F)F)c4)c3n2)cc1=O` [Compound 13, 1-Methyl-4-[8-[2-(trifluoromethyl)pyridin-4-yl]-1,5-naphthyridin-2-yl]pyridin-2-one], the pIC50 in series [1] (setting [5]) and in series [1] (setting [6]) was 7.11 each time.
`O=c1cc(-c2ccc3nccc(-c4ccnc(C(F)(F)F)c4)c3n2)ccn1CCO` [Compound 14, 1-(2-Hydroxyethyl)-4-[8-[2-(trifluoromethyl)pyridin-4-yl]-1,5-naphthyridin-2-yl]pyridin-2-one]: the pIC50 in series [3] (setting [7]) is 6.47; in series [3] (K1, read-out: PfK1 IC50) it was 6.46; in series [1] (setting [6]), 6.88.
As for `NC(=O)Cc1cccc(-c2ccc3nccc(-c4ccnc(C(F)(F)F)c4)c3n2)c1` [Compound 15, 2-[3-[8-[2-(Trifluoromethyl)pyridin-4-yl]-1,5-naphthyridin-2-yl]phenyl]acetamide], the pIC50 in series [3] (setting [7]) was 5.80; in series [3] (K1, read-out: PfK1 IC50) it was 5.79; in series [1] (setting [5]), 6.51; in series [1] (setting [6]), 6.51; in series [2] it was < 4.30.
As to `O[C@H]1CN(c2cc(-c3ccc4nccc(-c5ccnc(C(F)(F)F)c5)c4n3)ccn2)C[C@@H]1O` [Compound 16, (3S,4S)-1-[4-[8-[2-(Trifluoromethyl)pyridin-4-yl]-1,5-naphthyridin-2-yl]pyridin-2-yl]pyrrolidine-3,4-diol], the pIC50 was 6.46 in series [3] (setting [7]); 6.45 in series [3] (K1, read-out: PfK1 IC50); 7.29 in series [1] (setting [5]); 7.29 in series [1] (setting [6]); 4.55 in series [2].
As for `CC(C)(O)C(=O)N1CC=C(c2ccc3nccc(-c4ccnc(C(F)(F)F)c4)c3n2)CC1` [Compound 17, 2-Hydroxy-2-methyl-1-[4-[8-[2-(trifluoromethyl)pyridin-4-yl]-1,5-naphthyridin-2-yl]-3,6-dihydro-2H-pyridin-1-yl]propan-1-one], the pIC50 in series [3] (setting [7]) is 6.34; in series [3] (K1, read-out: PfK1 IC50) it was 6.33; in series [1] (setting [5]), 6.85; in series [1] (setting [6]), 6.84; in series [2] it was < 4.30.
Take `CS(=O)(=O)c1cccc(-c2ccc3nccc(-c4cccc(S(C)(=O)=O)c4)c3n2)c1` [Compound 18, 2,8-Bis(3-methylsulfonylphenyl)-1,5-naphthyridine]: the thermodynamic solubility (commonly solubility found after equilibrating the solid with the medium) at 20 h in series [4] was < 5 µM. Also, the pIC50 in series [1] (setting [8]) was 7.80; in series [1] (setting [9]) it was 7.76; in series [1] (pLDH assay, 72 h, read-out: Pf ABS IC50 NF54), 7.77; in series [2] (one biological replicate) it was 4.43.
Consider `Cn1cc(-c2ccc3nccc(-c4cccc(S(C)(=O)=O)c4)c3n2)ccc1=O` [Compound 20, 1-Methyl-5-[8-(3-methylsulfonylphenyl)-1,5-naphthyridin-2-yl]pyridin-2-one], for which the pIC50 in series [1] (setting [5]) is 6.39; in series [1] (setting [6]), 6.39; in series [2] it was 4.47.
On to `Cn1ccc(-c2ccc3nccc(-c4ccnc(C(C)(C)O)c4)c3n2)cc1=O` [Compound 23, 4-[8-[2-(2-Hydroxypropan-2-yl)pyridin-4-yl]-1,5-naphthyridin-2-yl]-1-methylpyridin-2-one], for which the pIC50 is 6.55 in series [3] (setting [7]); 6.56 in series [3] (K1, read-out: PfK1 IC50); 6.85 in series [1] (setting [5]); 6.84 in series [1] (setting [6]); < 4.30 in series [2].
Turning to `Cn1ccc(-c2ccc3nccc(-c4ccc(C(C)(C)O)cc4)c3n2)cc1=O` [Compound 25, 4-[8-[4-(2-Hydroxypropan-2-yl)phenyl]-1,5-naphthyridin-2-yl]-1-methylpyridin-2-one], the thermodynamic solubility at 20 h in series [4] (aqueous solution) amounted to 190 µM (≈ 70.6 µg/mL). Further, the values for the pIC50 in series [1] (setting [8]) and in series [1] (setting [9]) were 5.68 and 5.67, respectively.
Take `CC(C)(O)c1ccc(-c2ccnc3ccc(-c4cccc(CC(N)=O)c4)nc23)cn1` [Compound 26, 2-[3-[8-[6-(2-Hydroxypropan-2-yl)pyridin-3-yl]-1,5-naphthyridin-2-yl]phenyl]acetamide]: the pIC50 was 6.82 in series [3] (setting [7]); 6.82 in series [3] (K1, read-out: PfK1 IC50); 7.43 in series [1] (setting [5]); 7.42 in series [1] (setting [6]); 4.52 in series [2].
`CC(C)(O)c1ccc(-c2ccnc3ccc(-c4ccnc(N5C[C@H](O)[C@@H](O)C5)c4)nc23)cn1` [Compound 28, (3S,4S)-1-[4-[8-[6-(2-Hydroxypropan-2-yl)pyridin-3-yl]-1,5-naphthyridin-2-yl]pyridin-2-yl]pyrrolidine-3,4-diol] yielded a solubility (thermodynamic) at 20 h in series [4] (aqueous solution) of 20 µM (≈ 8.87 µg/mL). The pIC50 in series [3] (setting [10]) is 7.28; in series [3] (setting [11]) it was 7.28; in series [1] (setting [8]), 7.37; in series [1] (setting [9]), 7.37; in series [2] (one biological replicate) it was < 4.30.
As for `CC(C)(O)c1ccc(-c2ccnc3ccc(-c4cccc(CS(C)(=O)=O)c4)nc23)cn1` [Compound 29, 2-[5-[6-[3-(Methylsulfonylmethyl)phenyl]-1,5-naphthyridin-4-yl]pyridin-2-yl]propan-2-ol], the pIC50 in series [3] (setting [7]) was 5.80; in series [3] (K1, read-out: PfK1 IC50) it was 5.79; in series [1] (setting [5]), 7.34; in series [1] (setting [6]) it was 7.33; in series [2], < 4.30.
`CC(C)(O)c1cccc(-c2ccc3nccc(-c4ccc(C(C)(C)O)nc4)c3n2)c1` [Compound 30, 2-[3-[8-[6-(2-Hydroxypropan-2-yl)pyridin-3-yl]-1,5-naphthyridin-2-yl]phenyl]propan-2-ol] yielded a thermodynamic solubility at 20 h in series [4] (aqueous solution) of 55 µM (≈ 22 µg/mL). The pIC50 is 7.46 in series [3] (setting [10]); 7.47 in series [3] (setting [11]); 7.00 in series [1] (setting [8]); 6.98 in series [1] (setting [9]); 5.52 in series [2] (one biological replicate).
Turning to `CC(C)(O)c1ccc(-c2ccnc3ccc(-c4cccc(C(C)(C)O)c4F)nc23)cn1` [Compound 31, 2-[2-Fluoro-3-[8-[6-(2-hydroxypropan-2-yl)pyridin-3-yl]-1,5-naphthyridin-2-yl]phenyl]propan-2-ol], in series [4] (aqueous solution), the thermodynamic solubility at 20 h came to 10 µM (≈ 4.17 µg/mL). Besides, the pIC50 was 6.33 in series [3] (setting [10]), 6.33 in series [3] (setting [11]), 5.64 in series [1] (setting [8]) and 5.63 in series [1] (setting [9]).
For `CC(C)(O)c1ccc(-c2ccnc3ccc(-c4ccc(C(F)(F)F)nc4)nc23)cn1` [Compound 32, 2-[5-[6-[6-(Trifluoromethyl)pyridin-3-yl]-1,5-naphthyridin-4-yl]pyridin-2-yl]propan-2-ol], the thermodynamic solubility at 20 h in series [4] (aqueous solution) was < 5 µM. Moreover, the pIC50 in series [1] (setting [8]) and in series [1] (setting [9]) was 6.68 each time.
On to `Cn1cc(-c2ccnc3ccc(-c4cccc(S(C)(=O)=O)c4)nc23)ccc1=O` [Compound 33, 1-Methyl-5-[6-(3-methylsulfonylphenyl)-1,5-naphthyridin-4-yl]pyridin-2-one], for which the solubility (thermodynamic) at 20 h in series [4] (aqueous solution) was found to be 55 µM (≈ 21.5 µg/mL). Further, the pIC50 in series [1] (setting [8]) and in series [1] (setting [9]) was 7.02 in each case.
`Cn1ccc(-c2ccnc3ccc(-c4cccc(S(C)(=O)=O)c4)nc23)cc1=O` [Compound 34, 1-Methyl-4-[6-(3-methylsulfonylphenyl)-1,5-naphthyridin-4-yl]pyridin-2-one]: the thermodynamic solubility at 20 h in series [4] (aqueous solution) is 175 µM (≈ 68.5 µg/mL). Also, the pIC50 was 6.47 in series [3] (setting [7]); 6.47 in series [3] (K1, read-out: PfK1 IC50); 6.76 in series [1] (setting [6]); 4.36 in series [2].
In the case of `CS(=O)(=O)c1cccc(-c2ccc3nccc(-c4ccn(CCO)c(=O)c4)c3n2)c1` [Compound 35, 1-(2-Hydroxyethyl)-4-[6-(3-methylsulfonylphenyl)-1,5-naphthyridin-4-yl]pyridin-2-one], the solubility (thermodynamic) at 20 h in series [4] (aqueous solution) came to 195 µM (≈ 82.2 µg/mL). Besides, the pIC50 in series [1] (setting [5]) is 6.70; in series [1] (setting [6]), 6.70; in series [2], < 4.30.
Compound `CS(=O)(=O)c1cccc(-c2ccc3nccc(-c4cccc(C(=O)N5CCC(O)C5)c4)c3n2)c1` (stereo not drawn) [Compound 36, [3-[6-(3-Methylsulfonylphenyl)-1,5-naphthyridin-4-yl]phenyl]-(3-hydroxypyrrolidin-1-yl)methanone] yielded a thermodynamic solubility at 20 h in series [4] (aqueous solution) of 50 µM (≈ 23.7 µg/mL). Besides, the pIC50 is 6.62 in series [3] (setting [7]); 6.61 in series [3] (K1, read-out: PfK1 IC50); 6.66 in series [1] (setting [5]); 6.66 in series [1] (setting [6]); 4.48 in series [2].
Consider `CS(=O)(=O)c1cccc(-c2ccc3nccc(-c4ccc(C(=O)N5CC[C@H](N)C5)cc4)c3n2)c1` [Compound 38, [(3S)-3-Aminopyrrolidin-1-yl]-[4-[6-(3-methylsulfonylphenyl)-1,5-naphthyridin-4-yl]phenyl]methanone], for which the solubility (thermodynamic) at 20 h in series [4] (aqueous solution) was determined as 180 µM (≈ 85.1 µg/mL). The pIC50 is 7.32 in series [1] (setting [8]), 7.31 in series [1] (setting [9]) and 4.55 in series [2] (one biological replicate).
As to `CC[C@H]1CN2CCc3cc(OC)c(OC)cc3[C@@H]2C[C@@H]1C[C@H]1NCCc2cc(OC)c(OC)cc21` [Emetine, reference compound], the pIC50 in series [2] was > 8.52.
